{"source": "paper PMC5218480", "about": "(PLoS ONE, 2017)", "system": "MV-4-11 cells", "assay": "Gene expression microarray analysis (Affymetrix PrimeView) and GSEA", "type": "cell-based, human", "design": "RFU PODN (11730768_x_at) / Fold change /veh PODN (11730768_x_at) / RFU LINC00158 (11744669_a_at) / Fold change /veh LINC00158 (11744669_a_at) / RFU DUSP10 (11751237_a_at) / Fold change /veh DUSP10 (11751237_a_at) / RFU ID3 (11757404_x_at) / Fold change /veh ID3 (11757404_x_at) / RFU PLEKHG5 (11737974_s_at) / Fold change /veh PLEKHG5 (11737974_s_at) / RFU LRRC4B (11730491_at) / Fold change /veh LRRC4B (11730491_at) / RFU GIMAP4 (11747438_a_at) / Fold change /veh GIMAP4 (11747438_a_at) / RFU KRT8 (11758183_x_at) / Fold change /veh KRT8 (11758183_x_at) / RFU CNN1 (11734310_a_at) / Fold change /veh CNN1 (11734310_a_at) / RFU VPS37D (11726825_at) / Fold change /veh VPS37D (11726825_at) / RFU C10orf10 (11716522_x_at) / Fold change /veh C10orf10 (11716522_x_at) / RFU KIR2DL2 /// KIR2DL4 /// KIR2DL5A /// KIR2DL5B /// KIR2DS1 /// KIR2DS2 /// KIR2DS3 /// KIR2DS4 /// KIR3DL3 /// KIR3DL3 /// KIR3DS1 (11738374_at) / Fold change /veh KIR2DL2 /// KIR2DL4 /// KIR2DL5A /// KIR2DL5B /// KIR2DS1 /// KIR2DS2 /// KIR2DS3 /// KIR2DS4 /// KIR3DL3 /// KIR3DL3 /// KIR3DS1 (11738374_at) / RFU C1QL1 (11718748_at) / Fold change /veh C1QL1 (11718748_at) / RFU TMPRSS4 (11747572_a_at) / Fold change /veh TMPRSS4 (11747572_a_at) / RFU HAMP (11756126_x_at) / Fold change /veh HAMP (11756126_x_at) / RFU RNFT2 (11725882_a_at) / Fold change /veh RNFT2 (11725882_a_at) / RFU NR4A2 (11747474_a_at) / Fold change /veh NR4A2 (11747474_a_at) / RFU ABCC12 (11746883_a_at) / Fold change /veh ABCC12 (11746883_a_at) / RFU TMEM136 (11760407_x_at) / Fold change /veh TMEM136 (11760407_x_at) / RFU CLDN22 /// WWC2 (11732394_at) / Fold change /veh CLDN22 /// WWC2 (11732394_at) / RFU HLA-DPB1 (11760878_x_at) / Fold change /veh HLA-DPB1 (11760878_x_at) / RFU SPINT1 (11716480_a_at) / Fold change /veh SPINT1 (11716480_a_at) / RFU GAP43 (11754022_s_at) / Fold change /veh GAP43 (11754022_s_at) / RFU A4GNT (11735810_at) / Fold change /veh A4GNT (11735810_at) / RFU PRB3 (11715151_x_at) / Fold change /veh PRB3 (11715151_x_at) / RFU TUBB4B (11761932_at) / Fold change /veh TUBB4B (11761932_at) / RFU CAPN14 (11732068_a_at) / Fold change /veh CAPN14 (11732068_a_at) / RFU TMCC2 (11721928_a_at) / Fold change /veh TMCC2 (11721928_a_at) / RFU IRGQ (11745062_a_at) / Fold change /veh IRGQ (11745062_a_at) / RFU FAM174B (11720279_a_at) / Fold change /veh FAM174B (11720279_a_at) / RFU TMPRSS4 (11748680_a_at) / Fold change /veh TMPRSS4 (11748680_a_at) / RFU FAM212B (11763350_a_at) / Fold change /veh FAM212B (11763350_a_at) / RFU PLEKHG5 (11743358_a_at) / Fold change /veh PLEKHG5 (11743358_a_at) / RFU ZSCAN30 (11745921_a_at) / Fold change /veh ZSCAN30 (11745921_a_at) / RFU CMKLR1 (11741424_a_at) / Fold change /veh CMKLR1 (11741424_a_at) / RFU LOC101060620 /// MAPK8IP1 (11723275_at) / Fold change /veh LOC101060620 /// MAPK8IP1 (11723275_at) / RFU SPTSSB (11747773_x_at) / Fold change /veh SPTSSB (11747773_x_at) / RFU PRSS12 (11739890_at) / Fold change /veh PRSS12 (11739890_at) / RFU BIN1 (11741810_x_at) / Fold change /veh BIN1 (11741810_x_at) / RFU WNT11 (11732464_a_at) / Fold change /veh WNT11 (11732464_a_at) / RFU C10orf10 (11716521_a_at) / Fold change /veh C10orf10 (11716521_a_at) / RFU C5orf56 (11738089_at) / Fold change /veh C5orf56 (11738089_at) / RFU CYB561 (11721691_x_at) / Fold change /veh CYB561 (11721691_x_at) / RFU ANKRD19P (11752326_a_at) / Fold change /veh ANKRD19P (11752326_a_at) / RFU OR2T12 /// OR2T33 /// OR2T8 (11738714_s_at) / Fold change /veh OR2T12 /// OR2T33 /// OR2T8 (11738714_s_at) / RFU VCAN (11748164_a_at) / Fold change /veh VCAN (11748164_a_at) / RFU JSRP1 (11732532_at) / Fold change /veh JSRP1 (11732532_at) / RFU KRTAP10-11 (11738290_x_at) / Fold change /veh KRTAP10-11 (11738290_x_at) / RFU MYO3A (11730013_a_at) / Fold change /veh MYO3A (11730013_a_at) / RFU EBF3 (11725865_a_at) / Fold change /veh EBF3 (11725865_a_at) / RFU CAMK2N1 (11719241_x_at) / Fold change /veh CAMK2N1 (11719241_x_at) / RFU C5orf56 (11738088_a_at) / Fold change /veh C5orf56 (11738088_a_at) / RFU OLFML3 (11715873_a_at) / Fold change /veh OLFML3 (11715873_a_at) / RFU LOC100653217 /// NTM (11731650_a_at) / Fold change /veh LOC100653217 /// NTM (11731650_a_at) / RFU MAPK11 (11762145_a_at) / Fold change /veh MAPK11 (11762145_a_at) / RFU FIZ1 (11724087_x_at) / Fold change /veh FIZ1 (11724087_x_at) / RFU OASL (11726364_x_at) / Fold change /veh OASL (11726364_x_at) / RFU SOX15 (11748057_x_at) / Fold change /veh SOX15 (11748057_x_at) / RFU CD79A (11719716_a_at) / Fold change /veh CD79A (11719716_a_at) / RFU HIST1H1D (11736915_at) / Fold change /veh HIST1H1D (11736915_at) / RFU CASKIN2 (11723855_a_at) / Fold change /veh CASKIN2 (11723855_a_at) / RFU LOC730098 (11760151_x_at) / Fold change /veh LOC730098 (11760151_x_at) / RFU OR4N2 (11742367_at) / Fold change /veh OR4N2 (11742367_at) / RFU PRRT2 (11749266_a_at) / Fold change /veh PRRT2 (11749266_a_at) / RFU SNX32 (11753110_a_at) / Fold change /veh SNX32 (11753110_a_at) / RFU CDHR5 (11726645_a_at) / Fold change /veh CDHR5 (11726645_a_at) / RFU RCAN1 (11760418_a_at) / Fold change /veh RCAN1 (11760418_a_at) / RFU FAM167A (11723789_a_at) / Fold change /veh FAM167A (11723789_a_at) / RFU FAM26E (11764081_at) / Fold change /veh FAM26E (11764081_at) / RFU ISYNA1 (11749810_s_at) / Fold change /veh ISYNA1 (11749810_s_at) / RFU ACY1 (11761880_at) / Fold change /veh ACY1 (11761880_at) / RFU 11764098_at / Fold change /veh 11764098_at / RFU SAMD14 (11745864_x_at) / Fold change /veh SAMD14 (11745864_x_at) / RFU NPB (11741838_a_at) / Fold change /veh NPB (11741838_a_at) / RFU TMPRSS6 (11731388_a_at) / Fold change /veh TMPRSS6 (11731388_a_at) / RFU KRTAP10-2 (11738614_at) / Fold change /veh KRTAP10-2 (11738614_at) / RFU ARHGAP8 /// PRR5-ARHGAP8 (11727945_x_at) / Fold change /veh ARHGAP8 /// PRR5-ARHGAP8 (11727945_x_at) / RFU KRTAP5-7 /// NADSYN1 (11734609_at) / Fold change /veh KRTAP5-7 /// NADSYN1 (11734609_at) / RFU RASL12 (11751679_a_at) / Fold change /veh RASL12 (11751679_a_at) / RFU CDKN2B (11736163_a_at) / Fold change /veh CDKN2B (11736163_a_at) / RFU PRF1 (11729649_at) / Fold change /veh PRF1 (11729649_at) / RFU, ZNF638 /// ZNF638-IT1 / Fold change vs veh, ZNF638 /// ZNF638-IT1 / RFU, PANK3 / Fold change vs veh, PANK3 / RFU, SH3YL1 / Fold change vs veh, SH3YL1 / RFU, ZEB2 / Fold change vs veh, ZEB2 / RFU, NRIP1 / Fold change vs veh, NRIP1 / RFU, PTTG1IP / Fold change vs veh, PTTG1IP / RFU, CAPN2 / Fold change vs veh, CAPN2 / RFU, MED14 / Fold change vs veh, MED14 / RFU, SNORA58 / Fold change vs veh, SNORA58 / RFU, C1orf63 / Fold change vs veh, C1orf63 / RFU, LRRFIP1 / Fold change vs veh, LRRFIP1 / RFU, NDUFAF7 / Fold change vs veh, NDUFAF7 / RFU, SLC12A2 / Fold change vs veh, SLC12A2 / RFU, IBTK / Fold change vs veh, IBTK / RFU, ESF1 / Fold change vs veh, ESF1 / Fold change vs veh, TMEM50B / RFU, TAOK1 / Fold change vs veh, TAOK1 / RFU, ACBD3 / Fold change vs veh, ACBD3 / RFU, TMA16 / Fold change vs veh, TMA16 / RFU, RWDD3 / Fold change vs veh, RWDD3 / RFU, BCAT1 / Fold change vs veh, BCAT1 / RFU, EDEM3 / Fold change vs veh, EDEM3 / RFU, TMEM33 / Fold change vs veh, TMEM33 / RFU, WDR75 / Fold change vs veh, WDR75 / RFU, AHCTF1 / Fold change vs veh, AHCTF1 / RFU, TFRC / Fold change vs veh, TFRC / RFU, ZDHHC17 / Fold change vs veh, ZDHHC17 / RFU, NOM1 / Fold change vs veh, NOM1 / RFU, ARL8B / Fold change vs veh, ARL8B / RFU, ZBTB11 / Fold change vs veh, ZBTB11 / RFU, TAMM41 / Fold change vs veh, TAMM41 / RFU, KIAA1704 /// LOC100996395 / Fold change vs veh, KIAA1704 /// LOC100996395 / RFU, ING1 / Fold change vs veh, ING1 / RFU, TRMT61B / Fold change vs veh, TRMT61B / RFU, FUBP3 / Fold change vs veh, FUBP3 / RFU, TP53 / Fold change vs veh, TP53 / RFU, TNKS2 / Fold change vs veh, TNKS2 / RFU, ZFP14 / Fold change vs veh, ZFP14 / RFU, ACTR2 / Fold change vs veh, ACTR2 / RFU, PPP3R1 / Fold change vs veh, PPP3R1 / RFU, PIK3R1 / Fold change vs veh, PIK3R1 / RFU, HNRNPA1 / Fold change vs veh, HNRNPA1 / RFU, RNF170 / Fold change vs veh, RNF170 / RFU, ZNF28 / Fold change vs veh, ZNF28 / RFU, RNGTT / Fold change vs veh, RNGTT / RFU, OGT / Fold change vs veh, OGT / RFU, BRD1 / Fold change vs veh, BRD1 / RFU, MARS / Fold change vs veh, MARS / RFU, ZNF655 / Fold change vs veh, ZNF655 / RFU, FAHD1 / Fold change vs veh, FAHD1 / RFU, BDP1 / Fold change vs veh, BDP1 / RFU, LRRCC1 / Fold change vs veh, LRRCC1 / RFU, ARID1A / Fold change vs veh, ARID1A / RFU, ZNF146 / Fold change vs veh, ZNF146 / RFU, ZNF330 / Fold change vs veh, ZNF330 / RFU, GPN3 / Fold change vs veh, GPN3 / RFU, C9orf123 / Fold change vs veh, C9orf123 / RFU, N4BP2L2 / Fold change vs veh, N4BP2L2 / RFU, ARFIP1 / Fold change vs veh, ARFIP1 / RFU, FAM179B / Fold change vs veh, FAM179B / RFU, BCL10 / Fold change vs veh, BCL10 / RFU, UHRF1BP1L / Fold change vs veh, UHRF1BP1L / RFU, BET1 / Fold change vs veh, BET1 / RFU, CNOT2 / Fold change vs veh, CNOT2 / RFU, ZNF268 / Fold change vs veh, ZNF268 / Fold change vs veh, ZNF507 / RFU, DGCR2 / Fold change vs veh, DGCR2 / RFU, WDSUB1 / Fold change vs veh, WDSUB1 / Fold change vs veh, HSP90B1 /// MIR3652 / RFU, ADSS / Fold change vs veh, ADSS / RFU, GK / Fold change vs veh, GK / RFU, ZNF148 / Fold change vs veh, ZNF148 / RFU, TAF9 / Fold change vs veh, TAF9 / RFU, SLC1A5 / Fold change vs veh, SLC1A5 / RFU, SLMO2 / Fold change vs veh, SLMO2 / RFU, ABCC4 / Fold change vs veh, ABCC4 / RFU, LOC101060439 /// RAP1B / Fold change vs veh, LOC101060439 /// RAP1B / RFU, RFX7 / Fold change vs veh, RFX7 / RFU, GTPBP10 / Fold change vs veh, GTPBP10 / RFU, CNEP1R1 / Fold change vs veh, CNEP1R1 / RFU, BIVM-ERCC5 /// ERCC5 / Fold change vs veh, BIVM-ERCC5 /// ERCC5 / RFU, ILF3 / Fold change vs veh, ILF3 / RFU 11762660_at / Fold change /veh 11762660_at / RFU VCAN (11757783_s_at) / Fold change /veh VCAN (11757783_s_at) / RFU DDX43 (11728927_at) / Fold change /veh DDX43 (11728927_at) / RFU KRT8 (11758188_x_at) / Fold change /veh KRT8 (11758188_x_at) / RFU NKD1 (11759106_at) / Fold change /veh NKD1 (11759106_at) / RFU SRD5A1 (11742802_a_at) / Fold change /veh SRD5A1 (11742802_a_at) / RFU TPSAB1 /// TPSB2 (11721975_s_at) / Fold change /veh TPSAB1 /// TPSB2 (11721975_s_at) / RFU GSTM3 (11746129_a_at) / Fold change /veh GSTM3 (11746129_a_at) / RFU IL23R (11737362_x_at) / Fold change /veh IL23R (11737362_x_at) / RFU TMEM51 (11727254_a_at) / Fold change /veh TMEM51 (11727254_a_at) / RFU PIWIL2 (11732686_x_at) / Fold change /veh PIWIL2 (11732686_x_at) / RFU ORM1 (11744905_x_at) / Fold change /veh ORM1 (11744905_x_at) / RFU CCDC152 (11743942_at) / Fold change /veh CCDC152 (11743942_at) / RFU ECM1 (11717891_a_at) / Fold change /veh ECM1 (11717891_a_at) / RFU IL23R (11748794_a_at) / Fold change /veh IL23R (11748794_a_at) / RFU TNFAIP8L3 (11732012_x_at) / Fold change /veh TNFAIP8L3 (11732012_x_at) / RFU MBOAT4 (11741988_at) / Fold change /veh MBOAT4 (11741988_at) / RFU 11764193_at / Fold change /veh 11764193_at / RFU TMEM53 (11763286_at) / Fold change /veh TMEM53 (11763286_at) / RFU MAGEB2 (11727129_at) / Fold change /veh MAGEB2 (11727129_at) / RFU TMEM200A (11744735_a_at) / Fold change /veh TMEM200A (11744735_a_at) / RFU CCDC152 (11751479_a_at) / Fold change /veh CCDC152 (11751479_a_at) / RFU FAM211A (11726209_a_at) / Fold change /veh FAM211A (11726209_a_at) / RFU RGS16 (11746705_a_at) / Fold change /veh RGS16 (11746705_a_at) / RFU VCAN (11755009_s_at) / Fold change /veh VCAN (11755009_s_at) / RFU RHOB (11743442_s_at) / Fold change /veh RHOB (11743442_s_at) / RFU RGS16 (11720943_a_at) / Fold change /veh RGS16 (11720943_a_at) / RFU RGS16 (11720944_at) / Fold change /veh RGS16 (11720944_at) / RFU, VPS4B / Fold change vs veh, VPS4B / RFU, CREB1 / Fold change vs veh, CREB1 / RFU, DNAJC13 / Fold change vs veh, DNAJC13 / RFU, GNAQ / Fold change vs veh, GNAQ / RFU, CDK5R1 / Fold change vs veh, CDK5R1 / RFU, ZRANB3 / Fold change vs veh, ZRANB3 / RFU, CUL4A / Fold change vs veh, CUL4A / RFU, CCNY / Fold change vs veh, CCNY / RFU, UFL1 / Fold change vs veh, UFL1 / RFU, COG3 / Fold change vs veh, COG3 / RFU, DIAPH2 / Fold change vs veh, DIAPH2 / RFU, SKA2 / Fold change vs veh, SKA2 / RFU, AFF3 / Fold change vs veh, AFF3 / RFU, LMF1 / Fold change vs veh, LMF1 / RFU, IPO11 / Fold change vs veh, IPO11 / RFU, DFFB / Fold change vs veh, DFFB / RFU, FOXP1 / Fold change vs veh, FOXP1 / RFU, CARD8 / Fold change vs veh, CARD8 / RFU, STRN3 / Fold change vs veh, STRN3 / RFU, ADK / Fold change vs veh, ADK / RFU, RASSF2 / Fold change vs veh, RASSF2 / RFU, WIPF1 / Fold change vs veh, WIPF1 / RFU, LARP1B / Fold change vs veh, LARP1B / RFU, RASA1 / Fold change vs veh, RASA1 / RFU, RB1 / Fold change vs veh, RB1 / RFU, PPFIA1 / Fold change vs veh, PPFIA1 / RFU, MAT2A / Fold change vs veh, MAT2A / RFU, CCT5 / Fold change vs veh, CCT5 / RFU, WDR92 / Fold change vs veh, WDR92 / RFU, CUX1 / Fold change vs veh, CUX1 / RFU, TTC7A / Fold change vs veh, TTC7A / RFU, TMEM135 / Fold change vs veh, TMEM135 / RFU, DEPTOR / Fold change vs veh, DEPTOR / RFU, CPM / Fold change vs veh, CPM / RFU, DNAJB6 / Fold change vs veh, DNAJB6 / RFU, CACNA2D3 / Fold change vs veh, CACNA2D3 / RFU, DTX4 / Fold change vs veh, DTX4 / RFU, TFCP2 / Fold change vs veh, TFCP2 / RFU, GMCL1 /// GMCL1P1 / Fold change vs veh, GMCL1 /// GMCL1P1 / RFU, AEBP2 / Fold change vs veh, AEBP2 / RFU, SNHG1 /// SNORD22 /// SNORD25 /// SNORD26 /// SNORD27 /// SNORD28 /// SNORD29 /// SNORD31 / Fold change vs veh, SNHG1 /// SNORD22 /// SNORD25 /// SNORD26 /// SNORD27 /// SNORD28 /// SNORD29 /// SNORD31 / Fold change (Aza/veh), C12orf56 (ProbeSet 11735607_a_at) / Fold change (ACY-1035/veh), C12orf56 (ProbeSet 11735607_a_at) / Fold change (Aza/veh), FGFR1OP (ProbeSet 11751329_s_at) / Fold change (ACY-1035/veh), FGFR1OP (ProbeSet 11751329_s_at) / Fold change (Aza/veh), VPS36 (ProbeSet 11739960_a_at) / Fold change (ACY-1035/veh), VPS36 (ProbeSet 11739960_a_at) / RFU SYPL1 (11715823_x_at) / Fold change /veh SYPL1 (11715823_x_at) / RFU IGFBP7 (11715501_s_at) / Fold change /veh IGFBP7 (11715501_s_at) / RFU REEP3 (11722064_at) / Fold change /veh REEP3 (11722064_at) / RFU IGLL1 (11728026_x_at) / Fold change /veh IGLL1 (11728026_x_at): dose or concentration left out as unconfirmed", "settings": "ProbeSet 11758919_x_at; LIST D", "data": [{"smiles": "Nc1ccc(-c2cccs2)cc1NC(=O)c1ccc2c(c1)cc(C1CC1)n2CCN1CCOCC1", "note": "[ACY-1035]", "values": [{"measurement": "RFU, TFCP2", "value": 87.13, "unit": "RFU"}]}]}
